From patent publication US20240391940A1, “FUSED RING-CONTAINING COMPOUND, APPLICATION THEREOF, AND COMPOSITION CONTAINING SAME” (GenEros Biopharma Ltd., priority 2020, published 2024)

Assays:
[1] = system: LPS-induced production of TNF-α; test: LPS-induced TNF-α production in mice (plasma ELISA); format: in vivo; details: Balb/c mice; GEN1-284s 15 mpk intragastric, LPS 1 mpk i.p. 0.5 h after administration, plasma 2 h after LPS
Description: Materials and method: A total of 18 mice were used in this experiment. The mice were divided into a MOCK group (n=6), a dexamethasone group (n=6), and a GEN1-284s 15 mpk group (n=6). LPS (1 mpk) was intraperitoneally injected 0.5 h after administration. The mice were sacrificed 2 h after the LPS injection, and blood samples were taken. The blood samples were left in EDTA-K2 anticoagulant tubes at room temperature for 20 min and centrifuged at 8000 rpm for 10 min. The plasma was separated and cryopreserved at −80° C. before analysis.
LPS (1 mpk) was intraperitoneally injected 0.5 h after administration. The mice were sacrificed 2 h after the LPS injection, and blood samples were taken. The blood samples were left in EDTA-K2 anticoagulant tubes at room temperature for 20 min and centrifuged at 8000 rpm for 10 min. The plasma was separated and cryopreserved at −80° C. before analysis.
The mice were tested for TNF-α level with ELISA kits, and the inhibitory effect of GEN1-284s on the TNF-α level was evaluated.
According to the instructions for use, a standard curve formula (y=0.0038x+0.1206, R^2=0.9956) was obtained and can be used to calculate detection values.

[2] = system: Apoe KO mouse atherosclerosis model; test: Atherosclerosis model (Apoe KO mice, high-fat diet): blood lipid tests TCHO, TG, LDL-C, HDL-C; format: in vivo, C57BL/6 Apoe KO mice; details: Apoe KO mice, high-fat diet; GEN1-284s 60 mpk QD oral, 8 weeks
Description: (§1) Method: Apoe KO mice were tested for basal blood lipid levels and divided into a normal control group and a high-fat group. After 8 weeks of housing, the mice from the high-fat group were divided into 4 groups of about 8: a normal diet group (Chow), a high-fat diet model group (HFD), an Atorvastatin positive group (HFD+atorvastatin 5 mpk, QD), and a GEN1-284s group (284-60 mpk, QD). Oral administration was performed for 8 consecutive weeks, and the effect of the compound on the following indicators in Apoe KO mice was observed: 4 blood lipid tests (TC, TG, HDL-C and LDL-C), aortic plaque En-face staining, and pathological oil red staining of the cardiac outflow tract.
(§2) Mice from the groups except for the normal diet control group (Chow) were fed with high-fat feed every day for […]. From week 9, each group was orally administered solvent or a corresponding test compound, and body weight data were recorded every day for 8 consecutive weeks. After the first 8 weeks' high-fat diet, blood samples were taken and centrifuged to separate serum, and the serum was tested for blood lipid levels (TCHO, TG, LDL-C and HDL-C). The mice were randomly grouped according to the TCHO results and body weight. During the subsequent 8 weeks of administration, blood lipid tests (TCHO, TG, LDL-C and HDL-C) were run once every 4 weeks.
Mice were fasted overnight, and blood (150 μL) was collected via mandibular blood sampling or eye ball removal (for endpoint only) and left at room temperature for 2 h. The blood was centrifuged at 4° C. at 7000 rpm for 10 min, and serum was pipetted, quick-frozen in dry ice and then stored at −80° C. before analysis. The serum was tested for the biochemical indicators TCHO, TG, LDL-C and HDL-C using kits and a microplate reader.

[3] = system: Apoe KO mouse atherosclerosis model; test: Atherosclerosis model: aortic plaque En-face staining and plaque area; format: in vivo, C57BL/6 Apoe KO mice; details: Apoe KO mice, high-fat diet; GEN1-284s 60 mpk QD oral
Description: as §1, §2
At the end of the experiment, the mice were euthanized by CO2 inhalation, and their hearts and aortas (from the aortic arch to the iliac artery) were isolated. The isolated artery was dissected longitudinally from the aortic arch to the iliac artery, fixed in 4% paraformaldehyde for 30 min, synchronized with 60% isopropanol for 10 min, then stained in 60% oil red for 30 min, and then washed with 60% isopropanol 3 times for 5 min each time. Finally, the stained aorta was washed with deionized water and photographed. The proportion of red plaque areas was measured using Image Pro Plus 6.0 (Media Cybernetics, MD, US).

## O=C(Cc1ccc2ncccc2c1)N1CCC(n2c(=O)n(COP(=O)([O-])[O-])c3cccc(C(F)(F)F)c32)CC1.[Na+].[Na+] [GEN1-284 salt, (2-Oxo-3-(1-(2-(quinolin-6-yl)acetyl)piperidin-4-yl)-4-(trifluoromethyl)-2,3-dihydro-1H-benzo[d]imidazol-1-yl)methyl disodium phosphate]
[1]
  Inhibition rate against LPS-induced TNF-α: 36%
[2]
  Effect on dyslipidemia (TCHO, TG, HDL-C and LDL-C): partially ameliorate dyslipidemia
[3]
  Formation of atherosclerotic plaques: significantly reduced the formation of atherosclerotic plaques
